Measurements taken from PubChem BioAssay (NCI).
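A five-concentration, 48-hour dose response in 96-well plates underlies each endpoint, interpolated linearly between surrounding concentrations. Here, GI50 denotes the concentration required for 50% inhibition of growth. TGI: total growth inhibition.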

What was measured:
Assay in all cases: NCI anticancer screen, dose series, 48 h
[1] = tested on: HL-60(TB) leukemia
[2] = tested on: TK-10 renal
[3] = tested on: LOX IMVI melanoma
[4] = tested on: HCT-15 colon
[5] = tested on: K-562 leukemia
[6] = tested on: T-47D breast
[7] = tested on: NCI/ADR-RES ovarian
[8] = tested on: UACC-62 melanoma
[9] = tested on: U251 CNS
[10] = tested on: SR leukemia
[11] = tested on: UO-31 renal
[12] = tested on: NCI-H226 lung
[13] = tested on: HOP-92 NSCLC
[14] = tested on: MCF7 breast
[15] = tested on: HCC-2998 colon
[16] = tested on: CCRF-CEM leukemia
[17] = tested on: M14 melanoma
[18] = tested on: SF-268 CNS
[19] = tested on: EKVX NSCLC
[20] = tested on: NCI-H522 lung
[21] = tested on: UACC-257 melanoma
[22] = tested on: SF-295 CNS
[23] = tested on: COLO 205 colon
[24] = tested on: HT29 colon
[25] = tested on: PC-3 prostate
[26] = tested on: HS 578T breast
[27] = tested on: SW-620 colon
[28] = tested on: SF-539 CNS
[29] = tested on: MOLT-4 leukemia
[30] = tested on: A498 renal
[31] = tested on: DU-145 prostate
[32] = tested on: IGROV1 ovarian
[33] = tested on: MDA-MB-468 breast
[34] = tested on: OVCAR-8 ovarian
[35] = tested on: MDA-MB-435
[36] = tested on: SK-OV-3 ovarian
[37] = tested on: HOP-62 NSCLC
[38] = tested on: NCI-H23 lung
[39] = tested on: CAKI-1 renal
[40] = tested on: RPMI-8226 leukemia
[41] = tested on: KM12 colon
[42] = tested on: 786-0 renal
[43] = tested on: RXF 393 renal
[44] = tested on: BT-549 breast
[45] = tested on: SN12C renal
[46] = tested on: SNB-75 CNS
[47] = tested on: OVCAR-4 ovarian
[48] = tested on: MDA-MB-231 breast
[49] = tested on: SK-MEL-5 melanoma
[50] = tested on: A549 NSCLC
[51] = tested on: SK-MEL-28 melanoma
[52] = tested on: SK-MEL-2 melanoma
[53] = tested on: OVCAR-5 ovarian
[54] = tested on: SNB-19 CNS
[55] = tested on: MALME-3M melanoma
[56] = tested on: OVCAR-3 ovarian
[57] = tested on: NCI-H460 lung
[58] = tested on: ACHN renal

Compound: COc1ccc(-c2nc3ccccc3n2CC(=O)N=Nc2c(O)[nH]c3ccc(OC)cc23)cc1
- GI50 [1]: 2.83 µM
- TGI [1]: 13.5 µM
- GI50 [2]: 10.9 µM
- TGI [2]: 23.1 µM
- GI50 [3]: 2.02 µM
- TGI [3]: 4.76 µM
- GI50 [4]: 3.01 µM
- TGI [4]: 11.7 µM
- GI50 [5]: 4.1 µM
- TGI [5]: 95.8 µM
- GI50 [6]: 3.46 µM
- TGI [6]: 16.3 µM
- GI50 [7]: 2.02 µM
- TGI [7]: 5.18 µM
- GI50 [8]: 11.2 µM
- TGI [8]: 23.3 µM
- GI50 [9]: 12.5 µM
- TGI [9]: 25.3 µM
- GI50 [10]: 2.52 µM
- TGI [10]: 25.7 µM
- GI50 [11]: 11.2 µM
- TGI [11]: 23.2 µM
- GI50 [12]: 1.8 µM
- TGI [12]: 3.99 µM
- GI50 [13]: 8.19 µM
- TGI [13]: 26.4 µM
- GI50 [14]: 2.01 µM
- TGI [14]: 4.72 µM
- GI50 [15]: 6.54 µM
- TGI [15]: 19 µM
- GI50 [16]: 27.5 µM
- TGI [16]: > 100 µM
- GI50 [17]: 3.15 µM
- TGI [17]: 11 µM
- GI50 [18]: 13.3 µM
- TGI [18]: 31.6 µM
- GI50 [19]: 11.2 µM
- TGI [19]: 28.2 µM
- GI50 [20]: 6.18 µM
- TGI [20]: 22.9 µM
- GI50 [21]: 2.56 µM
- TGI [21]: 7.16 µM
- GI50 [22]: 14.3 µM
- TGI [22]: 34.7 µM
- GI50 [23]: 16.1 µM
- TGI [23]: 33.9 µM
- GI50 [24]: 2.17 µM
- TGI [24]: 4.9 µM
- GI50 [25]: 12.1 µM
- TGI [25]: 42.3 µM
- GI50 [26]: 6.39 µM
- TGI [26]: 32.3 µM
- GI50 [27]: 4.46 µM
- TGI [27]: 19.7 µM
- GI50 [28]: 2.95 µM
- TGI [28]: 9.35 µM
- GI50 [29]: 5.71 µM
- TGI [29]: 36.5 µM
- GI50 [30]: 15.4 µM
- TGI [30]: 29.6 µM
- GI50 [31]: 4.53 µM
- TGI [31]: 15.5 µM
- GI50 [32]: 12.3 µM
- TGI [32]: 25.4 µM
- GI50 [33]: 2 µM
- TGI [33]: 5.17 µM
- GI50 [34]: 2.3 µM
- TGI [34]: 5.85 µM
- GI50 [35]: 4.09 µM
- TGI [35]: 15.1 µM
- GI50 [36]: 15.6 µM
- TGI [36]: 30.8 µM
- GI50 [37]: 17.5 µM
- TGI [37]: 35.1 µM
- GI50 [38]: 10.4 µM
- TGI [38]: 23.5 µM
- GI50 [39]: 2.77 µM
- TGI [39]: 8.75 µM
- GI50 [40]: 13.2 µM
- TGI [40]: > 100 µM
- GI50 [41]: 15.2 µM
- TGI [41]: 33.8 µM
- GI50 [42]: 1.77 µM
- TGI [42]: 4.26 µM
- GI50 [43]: 1.87 µM
- TGI [43]: 3.59 µM
- GI50 [44]: 2.52 µM
- TGI [44]: 6.47 µM
- GI50 [45]: 6.02 µM
- TGI [45]: 19.3 µM
- GI50 [46]: 7.41 µM
- TGI [46]: 22.1 µM
- GI50 [47]: 11.6 µM
- TGI [47]: 30 µM
- GI50 [48]: 5.76 µM
- TGI [48]: 19.2 µM
- GI50 [49]: 5.37 µM
- TGI [49]: 18.3 µM
- GI50 [50]: 4.51 µM
- TGI [50]: 17.5 µM
- GI50 [51]: 4.4 µM
- TGI [51]: 19.9 µM
- GI50 [52]: 17.6 µM
- TGI [52]: 33.6 µM
- GI50 [53]: 13.8 µM
- TGI [53]: 33.6 µM
- GI50 [54]: 15.3 µM
- TGI [54]: 29.5 µM
- GI50 [55]: 3.28 µM
- TGI [55]: 12.7 µM
- GI50 [56]: 12.5 µM
- TGI [56]: 26.6 µM
- GI50 [57]: 4.22 µM
- TGI [57]: 15.4 µM
- GI50 [58]: 2.39 µM
- TGI [58]: 6.62 µM

Compound: CCCCCCCCc1cc(O)ccc1O
- GI50 [33]: 11.3 µM
- TGI [33]: 28.6 µM

Compound: CCOC(=O)N(O)c1ccc(/C=C/c2ccccc2)cc1
- GI50 [33]: 0.025 µM
- TGI [33]: 0.0908 µM

Compound: Cc1c2ccccc2c(C)n2c1nc1cc(Cl)c(Cl)cc12
- GI50 [33]: 27.6 µM
- TGI [33]: > 100 µM

Compound: NC1=C(O)C(=O)C(c2c[nH]c3ccc(OCc4ccccc4)cc23)O1 (stereo not drawn)
- GI50 [33]: > 100 µM
- TGI [33]: > 100 µM

Compound: C[C@@H]1Cc2c(ccc3[nH]ncc23)[C@@H](c2ccc(NC3CN(CCCF)C3)cn2)N1CC(F)(F)F
- GI50 [33]: 13.4 µM
- TGI [33]: 27.8 µM

Compound: O=S(=O)(Nc1ccc(Cl)c(Cl)c1)c1ccc(-c2cnc(C3CC3)o2)cc1
- GI50 [33]: 0.222 µM
- TGI [33]: 0.736 µM

Compound: COc1ccc(F)cc1-c1ccnc2[nH]c(C3=CCN(C4CCC(CC(=O)O)CC4)CC3)cc12 (stereo not drawn)
- GI50 [33]: 0.0779 µM
- TGI [33]: 0.444 µM

Compound: N=C1C=C(N)C(=O)c2ccccc21
- GI50 [33]: 0.112 µM
- TGI [33]: 0.248 µM

Compound: CC(C)(C)c1ccc(CC(=O)Nc2sc3c(c2C(N)=O)CCC(=O)C3)cc1
- GI50 [33]: 1.38 µM
- TGI [33]: 3.72 µM

Compound: COC(=O)[C@@H](C)C[C@H](Cc1ccccc1)NC(=O)c1csc([C@@H](C[C@H](C(C)C)N(C)C(=O)[C@@H](NC(=O)[C@H]2CCCCN2C)C(C(F)(F)F)C(F)(F)F)OC(C)=O)n1
- GI50 [33]: 0.0213 µM
- TGI [33]: > 16.7 µM

Compound: CN(C)CCOc1ccc2c(c1)C(=O)/C(=C\c1ncc([N+](=O)[O-])n1C)C2
- GI50 [33]: 0.188 µM
- TGI [33]: 0.516 µM

Compound: Cn1cc(-c2csc(-c3cn(C(=O)OC(C)(C)C)c4ccccc34)n2)c2cccnc21
- GI50 [33]: 0.865 µM
- TGI [33]: 12.3 µM

Compound: c1ccc2c(NCCCN3CCOCC3)c3oc4ccccc4c3nc2c1
- GI50 [33]: 1.36 µM
- TGI [33]: 3.4 µM

Compound: CNC(=O)c1cc(-c2ccc(F)cc2)cc(-c2ccc(S(=O)(=O)N3CCCC3)cc2)c1N
- GI50 [33]: 5.48 µM
- TGI [33]: > 25 µM

Compound: CSc1nc2ccc(C)cc2cc1/C=C1/C=C(c2ccccc2)NC1=O
- GI50 [33]: 5.77 µM
- TGI [33]: 61.3 µM

Compound: N=C(N)c1ccc(-c2ccc(-c3ccc(Cl)cc3Cl)s2)nc1
- GI50 [33]: 1.72 µM
- TGI [33]: 3.41 µM

Compound: CC1=C(SCCC(=O)OC(C[Se]C2=C(C)C(=O)c3ccccc3C2=O)C(=O)NC(C)(C)C)C(=O)c2ccccc2C1=O (stereo not drawn)
- GI50 [33]: 0.226 µM
- TGI [33]: 0.657 µM

Compound: C=Cc1cc(OC)c2c(c1)c(=O)oc1c2cc(OC)c2c(O)ccc(C3OC(C(C)O)C(O)C3O)c21 (stereo not drawn)
- GI50 [33]: 0.00491 µM
- TGI [33]: > 1 µM

Compound: COC(=O)c1cc(C)[nH]c2c(C)cc3nc4ccccc4c3c12
- GI50 [33]: 3.76 µM
- TGI [33]: 12.3 µM

Compound: CNc1nc(-c2ccc3c(N)n[nH]c3c2)cc(N2C[C@@H](C(=O)NC3CCCCC3)CC[C@H]2C)n1
- GI50 [33]: 0.27 µM
- TGI [33]: 2.44 µM

Compound: COc1ccc(S(=O)(=O)Nc2cc(Sc3cccc4cccnc34)c(O)c3ccccc23)cc1
- GI50 [33]: 1.15 µM
- TGI [33]: 3.12 µM

Compound: CC[C@@H](C(=O)[C@@H](C)[C@@H](O)[C@H](C)[C@@H]1O[C@@H]([C@@H](CC)C(=O)O)CC[C@@H]1C)[C@H]1O[C@]2(C=C[C@@H](O)[C@]3(CC[C@@](C)([C@H]4CC[C@](O)(CC)[C@H](C)O4)O3)O2)[C@H](C)C[C@@H]1C
- GI50 [33]: 0.197 µM
- TGI [33]: 2.44 µM

Compound: O=C(N/N=C/c1ccc(N(CCCl)CCCl)cc1)c1ccc(C(=O)N/N=C/c2ccc(N(CCCl)CCCl)cc2)cc1
- GI50 [33]: 1.6 µM
- TGI [33]: 80.6 µM

Compound: c1ccc(-c2cc3n4c(-c5ccccc5)nn(-c5ccccc5)c4cnc-3n2)cc1
- GI50 [33]: 4.38 µM
- TGI [33]: > 50 µM

Compound: CC(C)(C)CC(C)(C)NCC(O)COc1ccc(C(C)(C)c2ccc(OCC(O)CNC(C)(C)CC(C)(C)C)cc2)cc1 (stereo not drawn)
- GI50 [33]: 1.31 µM
- TGI [33]: 2.77 µM

Compound: CS(=O)(=O)CCNCc1ccoc1-c1ccc2ncnc(Nc3ccc(OCc4ccccc4)cc3)c2c1
- GI50 [33]: 0.506 µM
- TGI [33]: 4.49 µM

Compound: COc1cc2c(=O)n(CC3CCCCC3)c3c4cc[nH]c4ncc3c2cc1OC
- GI50 [33]: 4.61 µM
- TGI [33]: 25.6 µM

Compound: Cc1nc2sc(C(=O)Nc3ccccc3)c(N)c2cc1C(=O)c1ccccc1
- GI50 [33]: 2.59 µM
- TGI [33]: 28.9 µM

Compound: COC(=O)Nc1nc2ccc(C(=O)c3cccs3)cc2[nH]1
- GI50 [33]: 0.161 µM
- TGI [33]: > 100 µM

Compound: C[C@@H](C[C@H](CCO)c1ccccc1)c1ccc2ccccc2c1
- GI50 [33]: 1.53 µM
- TGI [33]: 2.98 µM

Compound: COc1ccc(C2C3=C(COC3=O)N(CCO)c3cc4c(cc32)CCC4)cc1 (stereo not drawn)
- GI50 [33]: 1.36 µM
- TGI [33]: 5.33 µM
